# Tests used:
# [1] = tested on: PKB; conditions: cisplatin treatment (ref. 32); cited from earlier work
# [2] = tested on: DNA-PK; conditions: through proteolytic degradation of DNA-PK (ref. 31); cited from earlier work
# [3] = biological target: T1, S473K1 (Homo sapiens, UniProt P78527); experiment: S473K1 (Mono Q fraction 27) kinase assay with FSY peptide plus DNA, or GST-PKBα419-480 and pS473 Western blot; assay type: biochemical; conditions: LY294002 5 μM, wortmannin 2 μM, staurosporine 5 μM; FSY peptide in presence of DNA and GST-PKBα419-480 (FIGS. 1E and F)
# T1 construct: purification and identification of this kinase from HEK293 cells; endogenous in cells; host or cells: HEK293 crude membrane fraction, purified over Q-Sepharose, Mono S and Mono Q
# Description: FIG. 1. Identification and purification of S473K. (A-C) Mono Q fractions were assayed for S473K activity with the FSY (solid) or FAY peptides (open) in the presence (triangles) or absence (circles) of DNA. […] (B) A 10-μl aliquot of each fraction was subjected to 8% SDS-PAGE and proteins visualized by Coomassie Blue staining. (C) Western blotting of fractions with anti-DNA-PKcs and anti-Ku80/Ku70 antibodies. (D) Recombinant ΔPH-PKBαT309P (PKB) was first incubated with S473K1 (5 μl), 10 μg/ml fetal calf thymus DNA, and 100 μM ATP in kinase buffer for different times. Aliquots of the reaction mixture were removed for assay of PKB activity as described in (11) or for Western blotting with pS473 and pT308 phospho-specific antibodies. […].
# All steps were performed at 4° C. Four hundred plates (Ø […]) of HEK293 cells were harvested in ice-cold phosphate-buffered saline and homogenized in ice-cold buffer A (50 mM Tris-HCl pH 7.4, 300 mM sucrose, 1 mM dithiothreitol, 10 mM sodium fluoride, 0.1 mM sodium orthovanadate, 20 nM okadiac acid, 1 mM phenylmethanesulfonyl fluoride and 1 mM benzamidine) using a polytron homogenizer. The nuclear fraction was removed by centrifuging at 1000 g for 10 min and the resulting supernatant was further centrifuged at 100,000 g for 60 min. […]
# [4] = biological target: T2, purified DNA-PK (Homo sapiens, UniProt P78527); experiment: Purified DNA-PK phosphorylation of PKB (FSY peptide / GST-PKBα419-480); assay type: biochemical; conditions: FSY peptide and GST-PKBα419-480; staurosporine 5 μM (FIGS. 2A and B)
# T2 construct: purified DNA-PK (from HeLa cells and human placenta) was tested; purchased Promega; host or cells: HeLa cells and human placenta
# Description: FIG. 2. DNA-PK phosphorylates and activates PKB in vitro. (A) Purified DNA-PK (Promega) (25 units) was assayed with 0.1 mg/ml of FSY, FAY and DNA-PK p53 substrate peptide (CTL) in the presence (+) or absence (−) of DNA. […]; aliquots of the reaction mixture were removed for assay of PKB activity as described in FIG. 1D or for Western blotting with pS473 and pT308 phospho-specific antibodies. (D) GST-PKBα419-480 and His-p53 (each 1 μg) were incubated with 25 units of purified DNA-PK and 100 μM [γ-32P]ATP in kinase buffer (11). The reactions were terminated and analyzed on 10% SDS-PAGE followed by autoradiography or 32P determination in excised gel slices.
# An antibody specific for PKB phosphorylated on Thr-308 (pT308) was purchased from Cell Signaling Technologies. An antibody specific for PKB phosphorylated on Ser-473 (pS473) was produced and purified as previously described (33). Polyclonal anti-PKB antibody (antibody10) (34) and monoclonal anti-PKB (A4D6) (35) have been described previously. Anti-Ku80, and anti-Ku 70 antibodies were purchased from Transduction Labs. Anti-DNA-PKcs (monoclonal G4) was from Santa Cruz Inc. Double-stranded fetal calf thymus DNA was from Sigma, and purified human DNA-PK protein and p53 substrate peptide […] (36) from Promega. […]
# T1 sequence (P78527 whole entry, one chain of several): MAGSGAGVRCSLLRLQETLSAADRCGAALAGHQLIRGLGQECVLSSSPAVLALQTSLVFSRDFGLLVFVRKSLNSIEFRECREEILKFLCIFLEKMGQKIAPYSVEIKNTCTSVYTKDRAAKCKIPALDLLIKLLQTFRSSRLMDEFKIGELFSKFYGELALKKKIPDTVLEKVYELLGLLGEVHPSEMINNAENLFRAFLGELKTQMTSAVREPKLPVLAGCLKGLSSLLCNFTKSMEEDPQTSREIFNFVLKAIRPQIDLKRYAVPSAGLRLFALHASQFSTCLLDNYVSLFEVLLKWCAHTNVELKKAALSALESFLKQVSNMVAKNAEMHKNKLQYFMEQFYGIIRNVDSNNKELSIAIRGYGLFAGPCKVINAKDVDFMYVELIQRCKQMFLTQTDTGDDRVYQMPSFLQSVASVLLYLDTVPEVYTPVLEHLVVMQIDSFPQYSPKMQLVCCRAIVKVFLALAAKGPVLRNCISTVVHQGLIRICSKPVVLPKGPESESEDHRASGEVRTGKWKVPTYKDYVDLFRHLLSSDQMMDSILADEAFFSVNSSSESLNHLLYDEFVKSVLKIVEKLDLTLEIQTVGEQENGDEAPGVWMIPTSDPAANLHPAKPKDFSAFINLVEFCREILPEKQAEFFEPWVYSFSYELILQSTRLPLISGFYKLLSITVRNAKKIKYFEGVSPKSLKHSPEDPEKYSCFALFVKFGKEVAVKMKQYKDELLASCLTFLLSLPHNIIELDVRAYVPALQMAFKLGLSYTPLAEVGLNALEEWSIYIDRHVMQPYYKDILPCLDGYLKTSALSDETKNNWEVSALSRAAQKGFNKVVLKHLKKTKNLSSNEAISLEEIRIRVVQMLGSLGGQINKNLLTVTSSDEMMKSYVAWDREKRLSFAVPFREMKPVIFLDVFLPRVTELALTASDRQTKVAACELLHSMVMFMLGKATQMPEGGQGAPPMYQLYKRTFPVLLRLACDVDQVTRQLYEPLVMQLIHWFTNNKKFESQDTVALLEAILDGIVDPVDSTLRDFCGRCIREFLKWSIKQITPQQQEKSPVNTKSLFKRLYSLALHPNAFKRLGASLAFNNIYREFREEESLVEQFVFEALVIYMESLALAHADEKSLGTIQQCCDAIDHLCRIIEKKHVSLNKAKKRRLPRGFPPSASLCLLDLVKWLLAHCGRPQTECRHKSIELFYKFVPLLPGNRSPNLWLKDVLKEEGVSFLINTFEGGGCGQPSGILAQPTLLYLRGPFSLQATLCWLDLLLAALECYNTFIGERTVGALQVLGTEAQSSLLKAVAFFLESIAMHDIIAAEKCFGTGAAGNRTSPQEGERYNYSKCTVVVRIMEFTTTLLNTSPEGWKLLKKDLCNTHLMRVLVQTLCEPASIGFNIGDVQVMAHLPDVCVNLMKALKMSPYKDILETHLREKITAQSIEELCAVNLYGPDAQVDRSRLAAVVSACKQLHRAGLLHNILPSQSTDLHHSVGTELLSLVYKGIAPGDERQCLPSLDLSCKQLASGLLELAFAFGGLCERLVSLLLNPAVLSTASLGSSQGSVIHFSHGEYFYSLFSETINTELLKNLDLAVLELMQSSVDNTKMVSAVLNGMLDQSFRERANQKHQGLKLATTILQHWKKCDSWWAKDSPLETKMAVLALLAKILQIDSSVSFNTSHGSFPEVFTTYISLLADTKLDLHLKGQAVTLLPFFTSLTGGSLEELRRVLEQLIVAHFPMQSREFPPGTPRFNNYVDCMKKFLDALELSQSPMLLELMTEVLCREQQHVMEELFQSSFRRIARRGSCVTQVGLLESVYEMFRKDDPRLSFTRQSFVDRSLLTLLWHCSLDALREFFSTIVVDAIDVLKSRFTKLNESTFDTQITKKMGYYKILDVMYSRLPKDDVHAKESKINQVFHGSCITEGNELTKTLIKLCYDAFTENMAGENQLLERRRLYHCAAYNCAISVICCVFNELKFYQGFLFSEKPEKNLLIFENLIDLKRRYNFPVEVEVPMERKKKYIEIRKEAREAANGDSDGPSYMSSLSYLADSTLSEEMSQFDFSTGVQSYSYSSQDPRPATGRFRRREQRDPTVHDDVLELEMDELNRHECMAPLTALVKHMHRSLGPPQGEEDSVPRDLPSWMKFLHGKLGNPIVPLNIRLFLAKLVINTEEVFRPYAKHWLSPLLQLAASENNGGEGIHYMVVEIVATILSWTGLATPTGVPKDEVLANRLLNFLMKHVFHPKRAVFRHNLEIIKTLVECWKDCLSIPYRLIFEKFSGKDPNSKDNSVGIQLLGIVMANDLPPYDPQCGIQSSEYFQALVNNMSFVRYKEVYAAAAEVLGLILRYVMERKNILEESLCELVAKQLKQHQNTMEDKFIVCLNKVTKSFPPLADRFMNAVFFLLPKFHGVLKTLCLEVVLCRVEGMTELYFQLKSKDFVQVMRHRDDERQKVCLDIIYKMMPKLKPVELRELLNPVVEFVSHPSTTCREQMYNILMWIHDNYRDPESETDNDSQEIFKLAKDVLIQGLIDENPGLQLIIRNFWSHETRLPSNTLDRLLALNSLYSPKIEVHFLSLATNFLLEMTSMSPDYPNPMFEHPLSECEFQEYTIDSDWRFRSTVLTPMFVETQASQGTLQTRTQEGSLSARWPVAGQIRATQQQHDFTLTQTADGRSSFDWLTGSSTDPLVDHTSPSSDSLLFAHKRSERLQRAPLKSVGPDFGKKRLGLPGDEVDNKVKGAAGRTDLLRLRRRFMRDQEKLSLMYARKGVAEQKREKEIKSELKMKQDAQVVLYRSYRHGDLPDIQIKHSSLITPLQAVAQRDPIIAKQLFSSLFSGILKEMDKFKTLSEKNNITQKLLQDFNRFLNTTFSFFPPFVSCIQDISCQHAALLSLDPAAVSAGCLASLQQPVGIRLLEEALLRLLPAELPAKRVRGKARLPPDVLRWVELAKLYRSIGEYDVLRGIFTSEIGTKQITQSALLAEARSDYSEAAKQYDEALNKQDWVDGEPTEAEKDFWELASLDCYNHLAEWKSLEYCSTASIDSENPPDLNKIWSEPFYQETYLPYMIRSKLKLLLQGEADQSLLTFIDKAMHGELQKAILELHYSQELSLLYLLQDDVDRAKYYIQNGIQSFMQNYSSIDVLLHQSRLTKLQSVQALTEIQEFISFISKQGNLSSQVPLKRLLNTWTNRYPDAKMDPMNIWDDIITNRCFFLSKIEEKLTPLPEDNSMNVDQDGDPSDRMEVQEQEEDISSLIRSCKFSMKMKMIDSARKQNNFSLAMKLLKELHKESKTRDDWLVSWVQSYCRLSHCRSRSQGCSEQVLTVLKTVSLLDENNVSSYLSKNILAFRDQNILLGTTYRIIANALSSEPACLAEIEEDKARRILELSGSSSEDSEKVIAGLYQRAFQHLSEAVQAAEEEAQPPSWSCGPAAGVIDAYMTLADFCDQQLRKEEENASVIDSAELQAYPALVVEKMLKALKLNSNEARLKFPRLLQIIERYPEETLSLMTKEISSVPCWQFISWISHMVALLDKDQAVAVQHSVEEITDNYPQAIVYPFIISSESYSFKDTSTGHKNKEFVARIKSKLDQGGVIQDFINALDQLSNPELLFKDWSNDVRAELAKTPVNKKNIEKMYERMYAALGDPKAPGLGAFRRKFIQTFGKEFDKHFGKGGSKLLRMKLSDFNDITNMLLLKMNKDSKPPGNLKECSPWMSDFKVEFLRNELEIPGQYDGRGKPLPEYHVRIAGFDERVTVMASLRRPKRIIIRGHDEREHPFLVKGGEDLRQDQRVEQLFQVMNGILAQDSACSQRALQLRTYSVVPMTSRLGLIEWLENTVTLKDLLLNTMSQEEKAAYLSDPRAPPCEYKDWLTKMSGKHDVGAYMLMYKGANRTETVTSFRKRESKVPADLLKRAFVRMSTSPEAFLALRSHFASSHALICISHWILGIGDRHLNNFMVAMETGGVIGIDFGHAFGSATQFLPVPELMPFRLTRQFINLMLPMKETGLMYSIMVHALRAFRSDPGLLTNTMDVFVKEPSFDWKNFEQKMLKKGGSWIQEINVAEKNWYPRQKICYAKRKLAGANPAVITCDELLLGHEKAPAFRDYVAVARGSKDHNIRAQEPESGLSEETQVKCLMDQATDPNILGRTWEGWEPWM
SMILES,PKB activity and Ser-473 phosphorylation [1],DNA-PK activity [2],S473K1 activity [3],phosphorylation of PKB catalyzed by purified DNA-PK [4]
N.N.[Cl][Pt][Cl] [cisplatin],inhibited,decrease,,
CN[C@@H]1C[C@H]2O[C@@](C)([C@@H]1OC)n1c3ccccc3c3c4c(c5c6ccccc6n2c5c31)C(=O)NC4 [staurosporine],,,not affected,resistant

# — US20080038277A1, “Dna Pkinase Inhibitors For Treating Cancer And Diabetes” (priority 2004, published 2008)
